Experimental findings from patent US12643871B2, “Aryl formamide compound containing chiral sulfur oxide or salt thereof, preparation method, herbicidal composition and use thereof” (Qingdao Kingagroot Chemical Compound Co., Ltd., priority 2019, dated 2026) are described below.

Each structure is given as a SMILES string.

What all share (assay): Weeding effect in post-emergence stage
Format in all cases: in vivo
What all share (settings): 250 g/ha; 2 leaf stage; 15 days after application; fresh weight control rate

In one experiment the test system is Echinochloa crusgali. The procedure, abridged:
(§1)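 Reported levels reflect fresh weight growth control rate banded 0 (<5%) through 5 (>85%), averaged over three repetitions. Treatment: foliar spray of 2-leaf-stage greenhouse plants at 15 to 500 g/ha, with 1.5 liter/ha methyl oleate synergist; assessment 15 days after application.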

A further experiment deals with Setaria viridis. The essentials: as §1
Another experiment has as its system Amaranthus retroflexus. The procedure, abridged: as §1
Another experiment has as its system Digitaria sanguinalis. The procedure, abridged:
as §1

The next experiment relates to Abutilon theophrasti. The essentials: as §1

Regarding `COc1c(C(=O)Nc2nnc(C)o2)ccc(C(F)(F)F)c1[S@@+]([O-])C(F)F` [Compound 322], in the experiment with Echinochloa crusgali, the “weeding effect in post-emergence stage, activity level (growth control rate), Echinochloa crusgali” value (“weeding effect … Echinochloa crusgali” for short) is 5 (Level 5: growth control rate is above 85%). Also, the “weeding effect in post-emergence stage, activity level (growth control rate), Setaria viridis” value (“weeding effect … Setaria viridis” below) with Setaria viridis was 5 (Level 5: growth control rate is above 85%). In addition, the “weeding effect in post-emergence stage, activity level (growth control rate), Amaranthus retroflexus” value (from here on “weeding effect … Amaranthus retroflexus”) in the experiment on Amaranthus retroflexus is 5 (Level 5: growth control rate is above 85%). Also, the “weeding effect in post-emergence stage, activity level (growth control rate), Digitaria sanguinalis” value (from here on “weeding effect … Digitaria sanguinalis”) in the experiment on Digitaria sanguinalis is 5 (Level 5: growth control rate is above 85%). In the experiment on Abutilon theophrasti, the “weeding effect in post-emergence stage, activity level (growth control rate), Abutilon theophrasti” value (“weeding effect … Abutilon theophrasti” for short) is recorded as 5 (Level 5: growth control rate is above 85%).

On to `COC(C)[S+]([O-])c1c(C(F)(F)F)ccc(C(=O)Nc2nnc(C)o2)c1F` (stereo not shown) [Compound 71], for which the “weeding effect … Echinochloa crusgali” value in the experiment on Echinochloa crusgali was 5 (Level 5: growth control rate is above 85%). Further, the “weeding effect … Setaria viridis” value with Setaria viridis was 5 (Level 5: growth control rate is above 85%). For the same compound, the “weeding effect … Amaranthus retroflexus” value in the experiment with Amaranthus retroflexus was 5 (Level 5: growth control rate is above 85%). For the same compound, in the experiment with Digitaria sanguinalis, the “weeding effect … Digitaria sanguinalis” value is 5 (Level 5: growth control rate is above 85%). In addition, the “weeding effect … Abutilon theophrasti” value in the experiment on Abutilon theophrasti is 5 (Level 5: growth control rate is above 85%).

Consider `CCC(C)[S@@+]([O-])c1c(C(F)(F)F)ccc(C(=O)Nc2nnc(C)o2)c1F` (stereo partly shown) [Compound 5], for which, in the experiment with Echinochloa crusgali, the “weeding effect … Echinochloa crusgali” value is 5 (Level 5: growth control rate is above 85%). Moreover, in the experiment with Setaria viridis, the “weeding effect … Setaria viridis” value is recorded as 5 (Level 5: growth control rate is above 85%). The “weeding effect … Amaranthus retroflexus” value with Amaranthus retroflexus is recorded as 5 (Level 5: growth control rate is above 85%). The “weeding effect … Digitaria sanguinalis” value with Digitaria sanguinalis is given as 5 (Level 5: growth control rate is above 85%). In addition, in the experiment on Abutilon theophrasti, the “weeding effect … Abutilon theophrasti” value is 5 (Level 5: growth control rate is above 85%).

Regarding `COCC[S@@+]([O-])c1c(C(F)(F)F)ccc(C(=O)Nc2nnc(C)o2)c1OC` [Compound 344], in the experiment on Echinochloa crusgali, the “weeding effect … Echinochloa crusgali” value is given as 5 (Level 5: growth control rate is above 85%). Moreover, the “weeding effect … Setaria viridis” value in the experiment on Setaria viridis is listed as 5 (Level 5: growth control rate is above 85%). Further, in the experiment on Amaranthus retroflexus, the “weeding effect … Amaranthus retroflexus” value was 5 (Level 5: growth control rate is above 85%). The “weeding effect … Digitaria sanguinalis” value in the experiment with Digitaria sanguinalis is 5 (Level 5: growth control rate is above 85%). Besides, the “weeding effect … Abutilon theophrasti” value in the experiment on Abutilon theophrasti was 5 (Level 5: growth control rate is above 85%).

Consider `CCCSc1c(C(=O)Nc2nnc(C)o2)ccc(C(F)(F)F)c1[S@+]([O-])CCC` [Compound 570], for which the “weeding effect … Echinochloa crusgali” value in the experiment with Echinochloa crusgali was 5 (Level 5: growth control rate is above 85%). The “weeding effect … Setaria viridis” value in the experiment with Setaria viridis is 5 (Level 5: growth control rate is above 85%). Also, the “weeding effect … Amaranthus retroflexus” value in the experiment with Amaranthus retroflexus is reported as 5 (Level 5: growth control rate is above 85%). In the experiment with Digitaria sanguinalis, the “weeding effect … Digitaria sanguinalis” value is on record as 5 (Level 5: growth control rate is above 85%). Besides, in the experiment with Abutilon theophrasti, the “weeding effect … Abutilon theophrasti” value is listed as 5 (Level 5: growth control rate is above 85%).

On to `CSc1c(C(=O)Nc2nnc(C)o2)ccc(C(F)(F)F)c1[S@+]([O-])CCCCl` [Compound 563], for which the “weeding effect … Echinochloa crusgali” value in the experiment on Echinochloa crusgali is on record as 5 (Level 5: growth control rate is above 85%). In addition, the “weeding effect … Setaria viridis” value in the experiment on Setaria viridis is listed as 5 (Level 5: growth control rate is above 85%). Further, the “weeding effect … Amaranthus retroflexus” value in the experiment on Amaranthus retroflexus is recorded as 5 (Level 5: growth control rate is above 85%). In the experiment on Digitaria sanguinalis, the “weeding effect … Digitaria sanguinalis” value is 5 (Level 5: growth control rate is above 85%). The “weeding effect … Abutilon theophrasti” value in the experiment on Abutilon theophrasti is 5 (Level 5: growth control rate is above 85%).

As for `Cc1nnc(NC(=O)c2ccc(C(F)(F)F)c([S@+]([O-])C(F)(F)F)c2F)o1` [Compound 30], in the experiment with Echinochloa crusgali, the “weeding effect … Echinochloa crusgali” value is recorded as 5 (Level 5: growth control rate is above 85%). For the same compound, the “weeding effect … Setaria viridis” value in the experiment with Setaria viridis is given as 5 (Level 5: growth control rate is above 85%). Also, the “weeding effect … Amaranthus retroflexus” value in the experiment with Amaranthus retroflexus was 5 (Level 5: growth control rate is above 85%). For the same compound, in the experiment on Digitaria sanguinalis, the “weeding effect … Digitaria sanguinalis” value is listed as 5 (Level 5: growth control rate is above 85%). For the same compound, the “weeding effect … Abutilon theophrasti” value with Abutilon theophrasti is given as 5 (Level 5: growth control rate is above 85%).

Take `COc1c(C(=O)Nc2nnc(C)o2)ccc(C(F)(F)F)c1[S@+]([O-])CCCN` [Compound 339]: the “weeding effect … Echinochloa crusgali” value in the experiment with Echinochloa crusgali is given as 5 (Level 5: growth control rate is above 85%). The “weeding effect … Setaria viridis” value in the experiment with Setaria viridis is listed as 5 (Level 5: growth control rate is above 85%). Further, in the experiment on Amaranthus retroflexus, the “weeding effect … Amaranthus retroflexus” value is 5 (Level 5: growth control rate is above 85%). Moreover, the “weeding effect … Digitaria sanguinalis” value with Digitaria sanguinalis is 5 (Level 5: growth control rate is above 85%). The “weeding effect … Abutilon theophrasti” value in the experiment on Abutilon theophrasti is listed as 5 (Level 5: growth control rate is above 85%).

For the compound `Cc1nnc(NC(=O)c2ccc(C(F)(F)F)c([S@+]([O-])CCCC(F)(F)F)c2F)o1` [Compound 34], the “weeding effect … Echinochloa crusgali” value with Echinochloa crusgali is given as 5 (Level 5: growth control rate is above 85%). Also, the “weeding effect … Setaria viridis” value in the experiment with Setaria viridis is on record as 5 (Level 5: growth control rate is above 85%). In the experiment on Amaranthus retroflexus, the “weeding effect … Amaranthus retroflexus” value is listed as 5 (Level 5: growth control rate is above 85%). Also, in the experiment with Digitaria sanguinalis, the “weeding effect … Digitaria sanguinalis” value is recorded as 5 (Level 5: growth control rate is above 85%). In addition, the “weeding effect … Abutilon theophrasti” value with Abutilon theophrasti is 5 (Level 5: growth control rate is above 85%).

As for `COc1c(C(=O)Nc2nnc(C)o2)ccc(C(F)(F)F)c1[S@+]([O-])CCC(C)(C)C` [Compound 309], the “weeding effect … Echinochloa crusgali” value with Echinochloa crusgali is listed as 5 (Level 5: growth control rate is above 85%). In the experiment on Setaria viridis, the “weeding effect … Setaria viridis” value is on record as 5 (Level 5: growth control rate is above 85%). Further, in the experiment with Amaranthus retroflexus, the “weeding effect … Amaranthus retroflexus” value was 5 (Level 5: growth control rate is above 85%). Also, in the experiment on Digitaria sanguinalis, the “weeding effect … Digitaria sanguinalis” value is recorded as 5 (Level 5: growth control rate is above 85%). The “weeding effect … Abutilon theophrasti” value in the experiment on Abutilon theophrasti is on record as 5 (Level 5: growth control rate is above 85%).

On to `COc1c(C(=O)Nc2nnc(C)o2)ccc(C(F)(F)F)c1[S@+]([O-])CCCl` [Compound 332], for which the “weeding effect … Echinochloa crusgali” value in the experiment on Echinochloa crusgali is on record as 5 (Level 5: growth control rate is above 85%). In the experiment with Setaria viridis, the “weeding effect … Setaria viridis” value is reported as 5 (Level 5: growth control rate is above 85%). Also, the “weeding effect … Amaranthus retroflexus” value in the experiment with Amaranthus retroflexus is recorded as 5 (Level 5: growth control rate is above 85%). In addition, the “weeding effect … Digitaria sanguinalis” value with Digitaria sanguinalis is on record as 5 (Level 5: growth control rate is above 85%). For the same compound, the “weeding effect … Abutilon theophrasti” value in the experiment on Abutilon theophrasti is listed as 5 (Level 5: growth control rate is above 85%).
